One series has as its system Male ICR mice. The series can be described thus: Step-down inhibitory avoidance test, scopolamine-induced memory impairment. It counts as in vivo. As to conditions: 1.5 mg/kg oral gavage once a day for 21 days; scopolamine 2 mg/kg i.p.; vs model group, P<0.01. How it is done: Male ICR mice, aged 4-5 weeks were used in the study.
The study was performed in step-down inhibitory avoidance equipment with dimensions 12 cm×2 cm×18 cm in each chamber (Model: YLS-3T, Shandong Yiyan Technology Co., LTD., China). The bottom of each chamber was covered with a copper grid that can be electrified. A rubber platform was placed in the right corner of each chamber.
Male ICR mice in each group were treated by oral gavage once a day for 21 days with the vehicle, Donepezil Hydrochloride (1.5 mg/kg), and the peptide […] (SEQ ID NO:2) (0.3, 10 mg/kg), respectively. Two hours after the last administration, scopolamine hydrobromide (2 mg/kg) was injected intraperitoneally to induce memory impairment.
Fifty male ICR mice were divided into 5 groups according to the average of body weight, 10 mice in each group, as detailed in Table 1. […]
Evaluation period: 24 h after the training period, the mice were placed on the rubber platform and evaluated for 5 minutes. The latency of the first jump from the platform to the copper grid was observed and counted, and the latency in seconds was analyzed to evaluate memory improvement.
All results were given as mean±SEM, and the data differences between groups were analyzed by t-test for the paired comparisons using the GraphPad Prism 8 statistical package (GraphPad Software Inc., San Diego, CA, USA). […]

In a further series the test system is AVPR1A, AVPR1B, AVPR2. The series can be described thus: Tail suspension test (TST) with vasopressin receptor inhibitors. The format is in vivo.
A further series concerns healthy subjects. As to conditions: human, in vivo.
Setting [1] is: inhibitor given with the peptide.

Where a name gives a salt, the structure may show the parent alone. No end group written: not given here.

Method for healthy subjects: A Phase 1a/1b, randomized, placebo-controlled, crossover study with the peptide [sequence] (SEQ ID NO:2) in healthy subjects was performed. The study population included men and women in good general health.
A single ascending dose (SAD) group included four cohorts receiving 60 mg/day (cohorts SAD1 and SAD2). 180 mg/day (cohort SAD3), or 540 mg/day (cohort SAD4) of the peptide or placebo. A multiple ascending dose (MAD) group included three cohorts receiving 60 mg/day (cohort MAD1), 180 mg/day (cohort MAD2), or 540 mg/day (cohort MAD3) of the peptide or placebo for seven days. All doses were administered orally.

In the case of `COc1cc2c(cc1OC)C(=O)C(CC1CCN(Cc3ccccc3)CC1)C2` (centres unmarked) [Donepezil Hydrochloride], in the series with Male ICR mice, the “latency of the first jump from the platform (step-down)” value was “significantly longer than the model group”.
As for `Cc1nc2c([nH]1)-c1ccccc1N(C(=O)c1ccc(NC(=O)c3ccccc3-c3ccccc3)cc1)CC2` [conivaptan], the “blocking of LSSTQAQQSY activity in a tail suspension test” value in the series with AVPR1A, AVPR1B, AVPR2 (setting [1]) is recorded as “blocks”; with AVPR1A, AVPR1B, AVPR2 (low doses of the inhibitor), “blocks”.
Consider `Cc1ccccc1C(=O)Nc1ccc(C(=O)N2CCCC(O)c3cc(Cl)ccc32)c(C)c1` (centres unmarked) [tolvaptan], for which, in the series on AVPR1A, AVPR1B, AVPR2 (setting [1]), the “blocking of LSSTQAQQSY activity in a tail suspension test” value is reported as “does not block”.
With LSSTQAQQSY, in the series with healthy subjects, the “vital signs, electrocardiography (ECG) data, and physical examinations” value is “normal”.
